Reference: US20100022766A1, “BIOSYNTHETIC GENE CLUSTER FOR THE PRODUCTION OF A COMPLEX POLYKETIDE” (WYETH, priority 2008, published 2010)

B1: GDNF: glial-derived neurotrophic factor, used as control (protein, UniProt P39905 78-211, looked up)
Glial cell line-derived …: SPDKQMAVLPRRERNRQAAAANPENSRGKGRRGQRGKNRGCVLTAIHLNVTDLGLGYETKEELIFRYCSGSCDAAETTYDKILKNLSRNRRLVSDKVGQACCRPIAFDDDLSFLDDNLVYHILRKHSAKRCGCI

Tests used:
[1] = tested on: cortical neuron cultures; experiment: cortical neuron assay, neurite outgrowth (Cellomics ArrayScan ENO); assay type: cell-based; settings: Rattus norvegicus, Cortical neurone, 72 hours treatment
Method: Dissociated cortical neuron cultures were prepared as previously described [Pong et al, “Attenuation of staurosporine-induced apoptosis, oxidative stress, and mitochondrial dysfunction by synthetic superoxide dismutase and catalase mimetics, in cultured cortical neurons”, Exp Neurol. 2001 September; 171(1):84-97.] Briefly, embryonic day 15 rat fetuses were collected and dissected in ice-cold PBS. Dissected cortices were pooled together and transferred to an enzymatic dissociation medium containing papain. After 30 min, the tissue was mechanically triturated with a fire-polished glass Pasteur pipette. Single-cell suspensions in complete media were seeded on poly-L-ornithine and laminin coated 96-well plates. Twenty-four hours later, cultures were treated with various concentrations of compound of formula III for 72 hours. The cultures were then fixed and stained with an anti-tubulin antibody (TUJ-1) and a fluorescent-tagged secondary antibody. Neurite outgrowth was determined by using the Enhanced Neurite Outgrowth (ENO) algorithm with the Cellomics ArrayScan and expressed as average neurite length or neurite length per cell

[2] = tested on: cultured cortical neurons; experiment: total neurite length in cultured cortical neurons; assay type: cell-based, rat; settings: 72 hours
Method: Dissociated cortical neuron cultures were prepared as previously described (Pong et al., cited above, 2001). Briefly, embryonic day 15 rat fetuses were collected and dissected in ice-cold PBS. Dissected cortices were pooled together and transferred to an enzymatic dissociation medium containing papain. After 30 minutes, the tissue was mechanically triturated with a fire-polished glass Pasteur pipette. Single-cell suspensions in complete media were seeded on poly-L-ornithine and laminin coated 96-well plates. After 24 hours, cultures were treated with various concentrations of the compound of formula III for 72 hours. The cultures were then fixed and stained with an anti-tubulin primary antibody (TU-1) and a fluorescent-tagged secondary antibody. Neurite outgrowth was determined by using the Enhanced Neurite Outgrowth (ENO) algorithm with the Cellomics ArrayScan and expressed as total neurite length per cell.

[3] = tested on: cultured cortical neurons; experiment: neurofilament content in cultured cortical neurons; assay type: cell-based, rat; settings: 72 hours
Method: Dissociated cortical neuron cultures were prepared as previously described [Pong et al., Exp Neurol. 2001 September; 171(1):84-97 (2001)]. Briefly, embryonic day 15 rat fetuses were collected and dissected in ice-cold PBS. Dissected cortices were pooled together and transferred to an enzymatic dissociation medium containing papain. After 30 min, the tissue was mechanically triturated with a fire-polished glass Pasteur pipette. Single-cell suspensions in complete media were seeded on poly-L-ornithine and laminin coated 96-well plates. 24 hours later, cultures were treated with various concentrations of compound of formula (III) for 72 hours. The cultures were then fixed and stained with a neurofilament primary antibody and a peroxidase-tagged secondary antibody. A peroxidase substrate (K-Blue Max) was added and the calorimetric change was measure on a calorimetric plate reader.

[4] = tested on: cultured dorsal root ganglia; experiment: total neurite length in cultured dorsal root ganglia; assay type: cell-based, rat; settings: 72 hours
Method: Dissociated dorsal root ganglia cultures were prepared as previously described [A. Wood et al., “Stimulation of neurite outgrowth by immunophilin ligands: quantitative analysis by Cellomics Array scan” Society for Neuroscience (2004), abstract 104.31. Briefly, postnatal day 3-5 rat pups were euthanized. The spinal columns were removed and individual dorsal root ganglia (DRG) were dissected out. Dissected DRG were pooled together and transferred to an enzymatic dissociation medium containing papain. After 60 minutes, the tissue was mechanically triturated with a fire-polished glass Pasteur pipette. Single-cell suspensions in complete media were seeded on poly-L-ornithine and laminin coated 96-well plates. After 24 hours, cultures were treated with various concentrations of the compound of formula III for 72 hours. The cultures were then fixed and stained with an anti-tubulin primary antibody (TUJ-1) and a fluorescent-tagged secondary antibody. Neurite outgrowth was determined by using the Enhanced Neurite Outgrowth (ENO) algorithm with the Cellomics ArrayScan and expressed as total neurite length per cell.

[5] = tested on: mesencephalic dopanergic neuron cultures; experiment: high-affinity 3H-DA uptake in ventral mesencephalic cultures, with or without MPP+ exposure; assay type: cell-based, rat; settings: for protection against MPP toxicity: pre-treatment 1 hr or 24 hr, then MPP+ for 1 hr, recovery 24 hr or 48 hr, 3H-DA uptake readout
Method: Ventral mesencephalic cultures were prepared from E15 rat embryos and maintained for […] before experimentation according to the method of Pong et al., J Neurochem.
Cultures were then exposed to 10 μM 1-methyl-4-phenylpyridinium (MPP+) for 1 hr, in the presence of drug. After the 1 hr exposure, media was changed 3×, and fresh drug was added for an additional 24 hr or 48 hr.

[6] = cited from earlier work
[7] = target: FKBP12 (Homo sapiens, UniProt P62942); settings: cited from earlier work
Sequence of FKBP12 (P62942 whole entry, species assumed): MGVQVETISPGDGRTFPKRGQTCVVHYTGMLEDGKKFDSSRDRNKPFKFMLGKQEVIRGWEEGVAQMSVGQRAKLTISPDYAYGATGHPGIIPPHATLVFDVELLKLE

Row | Molecule | EC50 [1] | TOTAL NEURITE LENGTH (% ABOVE CONTROL) ([2]; 10 nM) | TOTAL NEURITE LENGTH (% ABOVE CONTROL) ([2]; 100 nM) | TOTAL NEURITE LENGTH (% ABOVE CONTROL) ([2]; 1 μM) | TOTAL NEURITE LENGTH (% ABOVE CONTROL) ([2]; 10 μM) | NEUROFILAMENT CONTENT (FOLD-INCREASE ABOVE CONTROL) ([3]; 10 nM) | NEUROFILAMENT CONTENT (FOLD-INCREASE ABOVE CONTROL) ([3]; 100 nM) | NEUROFILAMENT CONTENT (FOLD-INCREASE ABOVE CONTROL) ([3]; 1 μM) | NEUROFILAMENT CONTENT (FOLD-INCREASE ABOVE CONTROL) ([3]; 10 μM) | TOTAL NEURITE LENGTH (% ABOVE CONTROL) ([4]; 10 nM) | TOTAL NEURITE LENGTH (% ABOVE CONTROL) ([4]; 100 nM) | TOTAL NEURITE LENGTH (% ABOVE CONTROL) ([4]; 1 μM) | TOTAL NEURITE LENGTH (% ABOVE CONTROL) ([4]; 10 μM) | protection against MPP toxicity [5] | neuroprotective activity in vitro [6] | FKBP12 binding activity [7] | DA uptake ([5]; normal cultures, no MPP+)
1 | CC/C1=C\CC(/C(C)=C/C(C)C(C)O)OC(=O)C2CCCCN2C(=O)CC2(O)OC(CCC2C)CC(O)C(C)C(O)CC(O)CC(O)/C(C)=C/C(C)CC(C)C1O (stereo not drawn) [Example 9, C9-deoxomeridamycin] | < 1000 nM | 10% | 54% | 86% | 121% | 1.9 FOLD-INCREASE ABOVE CONTROL | 2.19 FOLD-INCREASE ABOVE CONTROL | 2.24 FOLD-INCREASE ABOVE CONTROL | 2.29 FOLD-INCREASE ABOVE CONTROL | 17% | 24% | 36% | 64% |  |  |  | 
2 | CC/C1=C\CC(/C(C)=C/C(C)C(C)O)OC(=O)C2CCCCN2C(=O)C(=O)C2(O)OC(CCC2C)CC(O)C(C)C(O)CC(O)CC(O)/C(C)=C/C(C)CC(C)C1O (stereo not drawn) [meridamycin, Meridamycin] |  |  |  |  |  |  |  |  |  |  |  |  |  | partial, but significant protection | significant neuroprotective activity in vitro | strong FKBP12 binding activity | 
3 | B1 |  |  |  |  |  |  |  |  |  |  |  |  |  | partial, but significant protection |  |  | enhanced DA uptake
